From patent US12077503B2, “Substituted cyclic amides and their use as herbicides” (FMC CORPORATION, priority 2015, dated 2024)

Assays:
Format in all cases: in vivo
[1] = test system: pigweed (Amaranthus retroflexus); experiment: Test A preemergence; details: Amaranthus retroflexus, pre-emergence, 240 h, preemergence, read-out: Pigweed plant response rating; for pest or weed control at 125 g/ha: 125 g ai/ha, 0 to 100 scale where 0 is no effect and 100 is complete control, approx. 10 d; for pest or weed control at 500 g/ha: 500 g ai/ha, visual injury rating about 10 d after treatment, 0 to 100 scale (0 no effect, 100 complete control)
rice (Oryra sativa) = experiment: Test B flooded paddy test; details: Oryza sativa, 250 g ai/ha, Flood; 0 to 100 scale where 0 is no effect and 100 is complete control; read-out: Rice plant response rating
Outline: (§1)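 Flooding to 3 cm over soil accompanied treatment, which consisted of adding compound to the standing water around 2-leaf plants; depth was then maintained. Visual assessment versus controls followed at 13 to 15 d (scale 0–100, 0 meaning no effect).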

[2] = test system: barnyardgrass (Echinochloa crus-galli); experiment: Test B flooded paddy test; details: Echinochloa crus-galli, 250 g ai/ha, Flood; 0 to 100 scale where 0 is no effect and 100 is complete control; read-out: Barnyardgrass plant response rating
Outline: as §1

[3] = test system: sedge, umbrella (small-flower umbrella sedge, Cyperus difformis); experiment: Test B flooded paddy test; details: Cyperus difformis, 250 g ai/ha, Flood; 0 to 100 scale where 0 is no effect and 100 is complete control; read-out: Sedge, Umbrella plant response rating
Outline: as §1

[4] = test system: ducksalad (Heteranthera limosa); experiment: Test B flooded paddy test; details: Heteranthera limosa, 250 g ai/ha, Flood; 0 to 100 scale where 0 is no effect and 100 is complete control; read-out: Ducksalad plant response rating
Outline: as §1

corn (Zea mays) = experiment: Test A postemergence; details: Zea mays, post-emergence, 240 h, postemergence, read-out: Corn plant response rating; for plant injury at 125 g/ha: 125 g ai/ha, visual injury on 0 to 100 scale (0 no effect, 100 complete control), approx. 10 d; for plant injury at 500 g/ha: 500 g ai/ha, 0 to 100 scale, 0 is no effect, 100 is complete control
Outline: (§2)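 Seeded soil received test chemicals as a preemergence directed spray, and seedlings at one to two leaves, 2–10 cm tall, received them postemergence, in a non-phytotoxic, surfactant-containing solvent mixture. Pots were held in a greenhouse for approximately 10 d, then rated for injury from 0, no effect, to 100, complete control.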

[5] = test system: wheat (Triticum aestivum); experiment: Test A postemergence; details: Triticum aestivum, post-emergence, 240 h, postemergence, read-out: Wheat plant response rating; for plant injury at 125 g/ha: 125 g ai/ha, visual injury on 0 to 100 scale (0 no effect, 100 complete control), approx. 10 d; for plant injury at 500 g/ha: 500 g ai/ha, 0 to 100 scale, 0 is no effect, 100 is complete control
Outline: as §2

[6] = test system: blackgrass (Alopecurus myosuroides); experiment: Test A postemergence; details: Alopecurus myosuroides, post-emergence, 240 h, postemergence, read-out: Blackgrass plant response rating; for pest or weed control at 125 g/ha: 125 g ai/ha, visual injury on 0 to 100 scale (0 no effect, 100 complete control), approx. 10 d; for pest or weed control at 500 g/ha: 500 g ai/ha, 0 to 100 scale, 0 is no effect, 100 is complete control
Outline: as §2

[7] = test system: barnyardgrass (Echinochloa crus-galli); experiment: Test A postemergence; details: Echinochloa crus-galli, post-emergence, 240 h, postemergence, read-out: Barnyardgrass plant response rating; for pest or weed control at 125 g/ha: 125 g ai/ha, visual injury on 0 to 100 scale (0 no effect, 100 complete control), approx. 10 d; for pest or weed control at 500 g/ha: 500 g ai/ha, 0 to 100 scale, 0 is no effect, 100 is complete control
Outline: as §2

[8] = test system: ragweed (common ragweed, Ambrosia elatior); experiment: Test A postemergence; details: Ambrosia artemisiifolia, post-emergence, 240 h, postemergence, read-out: Ragweed plant response rating; for pest or weed control at 125 g/ha: 125 g ai/ha, visual injury on 0 to 100 scale (0 no effect, 100 complete control), approx. 10 d; for pest or weed control at 500 g/ha: 500 g ai/ha, 0 to 100 scale, 0 is no effect, 100 is complete control
Outline: as §2

[9] = test system: giant foxtail (Setaria faberii); experiment: Test A postemergence; details: Setaria faberi, post-emergence, 240 h, postemergence, read-out: Foxtail, Giant plant response rating; for pest or weed control at 125 g/ha: 125 g ai/ha, visual injury on 0 to 100 scale (0 no effect, 100 complete control), approx. 10 d; for pest or weed control at 500 g/ha: 500 g ai/ha, 0 to 100 scale, 0 is no effect, 100 is complete control
Outline: as §2

[10] = test system: pigweed (Amaranthus retroflexus); experiment: Test A postemergence; details: Amaranthus retroflexus, post-emergence, 240 h, postemergence, read-out: Pigweed plant response rating; for pest or weed control at 125 g/ha: 125 g ai/ha, visual injury on 0 to 100 scale (0 no effect, 100 complete control), approx. 10 d; for pest or weed control at 500 g/ha: 500 g ai/ha, 0 to 100 scale, 0 is no effect, 100 is complete control
Outline: as §2

Kochia (Kochia scoparia) = experiment: Test A postemergence; details: Bassia scoparia, post-emergence, 240 h, postemergence, read-out: Kochia plant response rating; for pest or weed control at 125 g/ha: 125 g ai/ha, visual injury on 0 to 100 scale (0 no effect, 100 complete control), approx. 10 d; for pest or weed control at 500 g/ha: 500 g ai/ha, 0 to 100 scale, 0 is no effect, 100 is complete control
Outline: as §2

[11] = test system: ryegrass, Italian (Italian ryegrass, Lolium multiflorum); experiment: Test A postemergence; details: Lolium multiflorum, post-emergence, 240 h, postemergence, read-out: Ryegrass, Italian plant response rating; for pest or weed control at 125 g/ha: 125 g ai/ha, visual injury on 0 to 100 scale (0 no effect, 100 complete control), approx. 10 d; for pest or weed control at 500 g/ha: 500 g ai/ha, 0 to 100 scale, 0 is no effect, 100 is complete control
Outline: as §2

[12] = test system: Galium (catchweed bedstraw, Galium aparine); experiment: Test A postemergence; details: Galium, post-emergence, 240 h, postemergence, read-out: Galium plant response rating; for pest or weed control at 125 g/ha: 125 g ai/ha, visual injury on 0 to 100 scale (0 no effect, 100 complete control), approx. 10 d; for pest or weed control at 500 g/ha: 500 g ai/ha, 0 to 100 scale, 0 is no effect, 100 is complete control
Outline: as §2

Structure (SMILES) | pest or weed control at 125 g/ha [1] [%] | pest or weed control at 500 g/ha [1] [%] | pest or weed control at 250 g/ha (rice (Oryra sativa)) [%] | pest or weed control at 250 g/ha [2] [%] | pest or weed control at 250 g/ha [3] [%] | pest or weed control at 250 g/ha [4] [%] | plant injury at 125 g/ha (corn (Zea mays)) [%] | plant injury at 500 g/ha (corn (Zea mays)) [%] | plant injury at 125 g/ha [5] [%] | plant injury at 500 g/ha [5] [%] | pest or weed control at 125 g/ha [6] [%] | pest or weed control at 500 g/ha [6] [%] | pest or weed control at 125 g/ha [7] [%] | pest or weed control at 500 g/ha [7] [%] | pest or weed control at 125 g/ha [8] [%] | pest or weed control at 500 g/ha [8] [%] | pest or weed control at 125 g/ha [9] [%] | pest or weed control at 500 g/ha [9] [%] | pest or weed control at 125 g/ha [10] [%] | pest or weed control at 500 g/ha [10] [%] | other results
CN1C[C@H](c2cc(F)cc(F)c2)[C@@H](C(=O)Nc2cnccc2Cl)C1=O [Compound 1096] | 0 | 0 | 0 | 0 | 0 | 65 | 0 | 0 | 0 | 0 | 0 | 0 | 0 | 0 | 0 | 0 | 0 | 0 | 0 | 0 | pest or weed control at 125 g/ha (Kochia (Kochia scoparia)): 0%; pest or weed control at 500 g/ha (Kochia (Kochia scoparia)): 0%; pest or weed control at 125 g/ha [11]: 0%; pest or weed control at 500 g/ha [11]: 0%; pest or weed control at 125 g/ha [12]: 0%; pest or weed control at 500 g/ha [12]: 0%
Cc1cc([C@H]2CN(C)C(=O)[C@@H]2C(=O)Nc2ccc(F)c(F)c2F)ccc1Br [Compound 1101] | 0 | 20 | 0 | 30 | 0 | 60 | 30 | 70 | 0 | 50 | 0 | 30 | 70 | 80 | 0 | 0 | 70 | 80 | 30 | 50 | pest or weed control at 125 g/ha (Kochia (Kochia scoparia)): 30%; pest or weed control at 500 g/ha (Kochia (Kochia scoparia)): 60%; pest or weed control at 125 g/ha [11]: 20%; pest or weed control at 500 g/ha [11]: 60%; pest or weed control at 125 g/ha [12]: 50%; pest or weed control at 500 g/ha [12]: 60%
